Results published in article PMC12017303 (Science Advances, 2025).
Values after ≈ are worked out from the molar mass of the structure shown.

Key:
[1] = tested on: SARS-CoV-2 XBB.1.5 in A549-ACE2^h; assay: microbe, parasite or virus in culture; type: cell-based; settings: Severe acute respiratory syndrome coronavirus 2, read-out: Viral replication in A549-ACE2^h EC50: XBB.1.5
SARS-CoV-1 M^Pro = SARS-CoV-1 M^Pro (Severe acute respiratory syndrome coronavirus, UniProt P0C6X7); assay: biochemical
in vitro [2] = settings: mouse, microsomes, pH 7.4
HCoV Beta OC43 = assay: microbe, parasite or virus in culture; type: cell-based; settings: Betacoronavirus 1, OC43
[3] = tested on: SARS-CoV-2 XBB.1.16 in A549-ACE2^h; assay: microbe, parasite or virus in culture; type: cell-based; settings: Severe acute respiratory syndrome coronavirus 2, read-out: Viral replication in A549-ACE2^h EC50: XBB.1.16
in vitro [4] = settings: human, microsomes, pH 7.4
in vitro [5] = settings: plasma
[6] = tested on: SARS-CoV-2 BA.2 (omicron); assay: microbe, parasite or virus in culture; type: cell-based; settings: Severe acute respiratory syndrome coronavirus 2, Vero C1008
CYP2C8 = CYP2C8 (Homo sapiens, UniProt P10632); settings: human, pH 7.4
CYP2C8, sequence (P10632 whole entry): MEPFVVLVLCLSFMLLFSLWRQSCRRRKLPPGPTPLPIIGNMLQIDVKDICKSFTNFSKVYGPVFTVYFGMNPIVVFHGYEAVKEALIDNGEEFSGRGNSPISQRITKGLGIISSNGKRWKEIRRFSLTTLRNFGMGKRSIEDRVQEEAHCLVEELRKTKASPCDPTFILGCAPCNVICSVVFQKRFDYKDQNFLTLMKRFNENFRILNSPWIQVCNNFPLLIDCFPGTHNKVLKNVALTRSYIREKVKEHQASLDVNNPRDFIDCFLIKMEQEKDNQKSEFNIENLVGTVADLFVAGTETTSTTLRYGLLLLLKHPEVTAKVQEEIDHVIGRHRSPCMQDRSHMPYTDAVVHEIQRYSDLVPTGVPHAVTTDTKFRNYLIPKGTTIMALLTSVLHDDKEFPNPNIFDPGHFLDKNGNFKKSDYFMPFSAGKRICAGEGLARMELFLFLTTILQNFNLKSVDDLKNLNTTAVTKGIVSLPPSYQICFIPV

in vivo [7] = settings: mouse
HCoV Alpha 229E = assay: organism not typed; type: cell-based, HCoV 229E; settings: Huh-7
[8] = tested on: SARS-CoV-2 EG.5.1 in A549-ACE2^h; assay: microbe, parasite or virus in culture; type: cell-based; settings: Severe acute respiratory syndrome coronavirus 2, read-out: Viral replication in A549-ACE2^h EC50: EG.5.1
P-gp (MDR1) = assay: in vitro; settings: dog; for Papp B→A: MDCK-MDR1; for Papp A→B: MDCK-MDR1, MDCK AB
in vitro [9] = settings: PAMPA, pH 7.4
[10] = tested on: SARS-CoV-2 mNeon WA1 in A549-ACE2^h; type: cell-based
in vitro [11] = settings: human
in vitro [12] = settings: African green monkey
in vivo [13] = settings: male, CD-1, mouse; for AUC(0-t): AUClast; for Vd: Vss
[14] = tested on: SARS-CoV-2 mNeon XBB.1.16 in A549-ACE2^h; type: cell-based
[15] = tested on: panel of 40 receptors, ion channels (including the hERG channel), and serine and cysteine proteases
[16] = tested on: SARS-CoV-2 WA.1 (icSARS-CoV-2-mNG) in A549-ACE2^h; assay: microbe, parasite or virus in culture; type: cell-based; settings: for EC50: Severe acute respiratory syndrome coronavirus 2, read-out: Viral replication in A549-ACE2^h EC50: WA.1
[17] = tested on: SARS-CoV-2 WA.1 replicon in Vero ACE2 TMPRSS2; assay: microbe, parasite or virus in culture; type: cell-based; settings: Severe acute respiratory syndrome coronavirus 2, Vero, read-out: Replicon replication in Vero ACE2 TMPRSS2 EC50: WA.1
SARS-CoV-2 M^Pro = SARS-CoV-2 M^Pro (Severe acute respiratory syndrome coronavirus 2, UniProt P0DTD1); type: biochemical
physchem = settings: pH 7.4, aqueous buffer, kinetic from dmso stock
SARS-CoV Urbani = assay: microbe, parasite or virus in culture; type: cell-based; settings: Severe acute respiratory syndrome coronavirus, Vero C1008
[18] = male, CD-1, mouse, in vivo; for AUClast / Plasma T½: po, 50 mg/kg
[19] = tested on: human cytochrome P450 (CYP) isoforms; settings: human, pH 7.4
[20] = tested on: SARS-CoV-2 BA.2.86.1 replicon in Vero ACE2 TMPRSS2; assay: microbe, parasite or virus in culture; type: cell-based; settings: Severe acute respiratory syndrome coronavirus 2, Vero, read-out: Replicon replication in Vero ACE2 TMPRSS2 EC50: BA.2.86.1
HAPLN1 = HAPLN1 (Homo sapiens, UniProt P10915); type: binding
HAPLN1, sequence (P10915 16-354): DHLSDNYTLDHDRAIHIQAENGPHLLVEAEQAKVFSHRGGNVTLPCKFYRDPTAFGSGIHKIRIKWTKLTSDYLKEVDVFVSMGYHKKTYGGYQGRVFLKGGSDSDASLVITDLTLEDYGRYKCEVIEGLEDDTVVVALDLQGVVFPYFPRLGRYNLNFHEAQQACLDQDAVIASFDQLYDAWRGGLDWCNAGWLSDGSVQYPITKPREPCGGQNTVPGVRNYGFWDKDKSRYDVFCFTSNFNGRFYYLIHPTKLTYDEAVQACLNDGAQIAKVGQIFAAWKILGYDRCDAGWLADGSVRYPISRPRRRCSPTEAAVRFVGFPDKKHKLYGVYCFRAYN

MERS-CoV EMC = assay: microbe, parasite or virus in culture; type: cell-based; settings: Middle East respiratory syndrome-related coronavirus, Vero C1008
[21] = molecular target: SARS-CoV-2 M^Pro (Cys^145) (Severe acute respiratory syndrome coronavirus 2, UniProt P0DTD1); type: binding
[22] = rat, in vivo; cited from earlier work
cathepsin L2 = cathepsin L2 (Homo sapiens, UniProt O60911)
cathepsin L2, sequence (O60911 114-334): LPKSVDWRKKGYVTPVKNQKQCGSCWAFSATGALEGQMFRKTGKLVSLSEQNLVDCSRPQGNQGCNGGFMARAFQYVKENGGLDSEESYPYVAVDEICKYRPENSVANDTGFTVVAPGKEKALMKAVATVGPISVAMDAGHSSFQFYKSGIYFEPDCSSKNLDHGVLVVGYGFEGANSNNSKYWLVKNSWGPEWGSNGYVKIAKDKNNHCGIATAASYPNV

In the case of C#CCn1c(C)c(-n2nnc3ccccc32)c(=O)n(-c2cncc3ccccc23)c1=O [AVI-4516], the EC50 [1] is reported as 30 nM, the IC50 (SARS-CoV-1 M^Pro) is reported as 55 nM and the half-life (in vitro [2]) is reported as greater than 2 h. For the same compound, the EC50 (HCoV Beta OC43) was 590 nM, the EC90 (HCoV Beta OC43) was 520 nM and the EC50 [3] was 34 nM. It also gave a half-life (in vitro [4]) greater than 2 h, a fraction unbound (in vitro [5]; pH 7.4, PPB) of 0.37 and a fraction unbound (in vitro [5]; pH 7.4, plasma protein binding (PPB)) of 0.39. For the same compound, the EC50 [6] was 180 nM, the EC90 [6] was 390 nM and the CYP2C8 inhibition (CYP2C8) was ~ 45%. For the same compound, the Kp (in vivo [7]) was roughly 0.05, the EC50 (HCoV Alpha 229E) was 2900 nM and the EC90 (HCoV Alpha 229E) was 3500 nM. It also gave an EC50 [8] of 37 nM, a Papp B→A (P-gp (MDR1)) of 45.2 ×10⁻⁶ cm/s and a Papp A→B (P-gp (MDR1)) of 13.3 ×10⁻⁶ cm/s. The Papp (in vitro [9]) was 22.4 ×10⁻⁶ cm/s, the “synergy with molnupiravir (ZIP analysis)” value [10] was “a minor effect was observed in the direction of positive synergy” and the CC50 (in vitro [11]) was greater than 100000 nM. It also gave a viability at 100 µM (in vitro [11]) of 90.4%, a CC50 (in vitro [12]) greater than 100000 nM and a bioavailability (in vivo [13]; F) of 174%. The MRT inf (in vivo [13]; iv, 10 mg/kg) was 0.798 h, the clearance (in vivo [13]; iv, 10 mg/kg) was 29 mL/min/kg and the half-life (in vivo [13]; iv, 10 mg/kg) was 0.866 h. For the same compound, the AUC(0-inf) (in vivo [13]; iv, 10 mg/kg, AUCINF) was 5740 ng·h/mL, the AUC(0-t) (in vivo [13]; iv, 10 mg/kg) was 5730 ng·h/mL and the Vd (in vivo [13]; iv, 10 mg/kg) was 1.39 L/kg. For the same compound, the bioavailability (in vivo [13]; oral bioavailability (%F)) was greater than 100%, the half-life (in vivo [13]; po, 50 mg/kg) was 4.7 h and the AUC(0-inf) (in vivo [13]; po, 50 mg/kg, AUCINF) was 69500 ng·h/mL. For the same compound, the AUC(0-inf) (in vivo [13]; po, 50 mg/kg, AUCinf) was 69500 ng·h/mL, the AUC(0-t) (in vivo [13]; po, 50 mg/kg) was 49900 ng·h/mL and the Cmax (in vivo [13]; po, 50 mg/kg, CMax) was 10100 ng/mL. It also gave a Cmax (in vivo [13]; po, 50 mg/kg, Cmax) of 10100 ng/mL, a Tmax (in vivo [13]; po, 50 mg/kg, TMax) of 1 h and a Tmax (in vivo [13]; po, 50 mg/kg, Tmax) of 1 h. For the same compound, the “synergy with molnupiravir (ZIP analysis)” value [14] was “synergy was observed at several concentrations”, the “off-target activity across panel, result in words” value [15] was “no substantial inhibition or interference with any of the off-targets” and the EC50 [16] was 38 nM. For the same compound, the EC90 ([16]; Severe acute respiratory syndrome coronavirus 2, read-out: cellular 90% effective concentration (EC90)) was 97 nM, the EC50 [17] was 160 nM and the “M^Pro activity after dialysis” value (SARS-CoV-2 M^Pro) was “activity was not regained”. It also gave a solubility (physchem) of 347 µM (≈ 142 µg/mL), an EC50 (SARS-CoV Urbani) of 570 nM and an EC90 (SARS-CoV Urbani) of 1000 nM. The “Mouse F” value [18] was 57, the “free concentration in plasma” value [18] was 2615 nM and the AUClast [18] was 49900 ng·h/mL. For the same compound, the “Plasma T½” value [18] was 4.7 h, the “inhibition across the CYP panel” value [19] was no more than 25% and the EC50 [20] was 130 nM. For the same compound, the “increase in Tm of HAPLN1” value (HAPLN1) was 5.77 °C, the EC50 (MERS-CoV EMC) was less than 32 nM and the “covalent adduct by whole protein MS” value [21] was “single modification consistent with the mass of AVI-4516”.
In the case of CC(C)(C)[C@H](NC(=O)C(F)(F)F)C(=O)N1C[C@H]2[C@@H]([C@H]1C(=O)N[C@H](C#N)C[C@@H]1CCNC1=O)C2(C)C [nirmatrelvir, reference compound], the EC50 [1] is reported as 21 nM, the EC50 [3] is reported as 41 nM and the EC50 [8] is reported as 67 nM. The “brain concentrations relative to EC90” value [22] was “only three times the respective EC90 value”, the EC50 [16] was 31 nM and the EC50 [17] was 620 nM. The EC50 [20] was 810 nM.
O=c1[nH]c(-c2ccc(Cl)c(Cl)c2)c(-n2nnc3cc(F)c(F)cc32)c(=O)n1-c1cncc2ccccc12 [AVI-4673] gave an EC50 [1] of 150 nM, a half-life (in vitro [2]) greater than 2 h and an EC50 [3] of 360 nM. For the same compound, the half-life (in vitro [4]) was greater than 2 h, the fraction unbound (in vitro [5]; pH 7.4, PPB) was 0.005 and the EC50 [8] was 230 nM. For the same compound, the Papp B→A (P-gp (MDR1)) was 18.4 ×10⁻⁶ cm/s, the Papp A→B (P-gp (MDR1)) was 2.1 ×10⁻⁶ cm/s and the Papp (in vitro [9]) was 4.99 ×10⁻⁶ cm/s. For the same compound, the CC50 (in vitro [11]) was greater than 100000 nM, the viability at 100 µM (in vitro [11]) was 94.4% and the bioavailability (in vivo [13]; F) was 71.6%. It also gave an MRT inf (in vivo [13]; iv, 10 mg/kg) of 1.53 h, a clearance (in vivo [13]; iv, 10 mg/kg) of 51.7 mL/min/kg and a half-life (in vivo [13]; iv, 10 mg/kg) of 2.19 h. It also gave an AUC(0-inf) (in vivo [13]; iv, 10 mg/kg, AUCINF) of 3220 ng·h/mL, an AUC(0-t) (in vivo [13]; iv, 10 mg/kg) of 3100 ng·h/mL and a Vd (in vivo [13]; iv, 10 mg/kg) of 4.75 L/kg. For the same compound, the half-life (in vivo [13]; po, 50 mg/kg) was 2.12 h, the AUC(0-inf) (in vivo [13]; po, 50 mg/kg, AUCINF) was 11500 ng·h/mL and the AUC(0-inf) (in vivo [13]; po, 50 mg/kg, AUCinf) was 11500 ng·h/mL. The AUC(0-t) (in vivo [13]; po, 50 mg/kg) was 11500 ng·h/mL, the Cmax (in vivo [13]; po, 50 mg/kg, CMax) was 2420 ng/mL and the Cmax (in vivo [13]; po, 50 mg/kg, Cmax) was 2420 ng/mL. The Tmax (in vivo [13]; po, 50 mg/kg, TMax) was 4 h, the Tmax (in vivo [13]; po, 50 mg/kg, Tmax) was 2 h and the EC50 [16] was 190 nM. For the same compound, the EC50 [17] was 940 nM, the “cathepsin L2 inhibition, result in words” value (cathepsin L2) was “low-micromolar inhibitor” and the solubility (physchem) was 475 µM (≈ 255 µg/mL). The “Mouse F” value [18] was 76, the AUClast [18] was 11500 ng·h/mL and the “Plasma T½” value [18] was 2.12 h. It also gave an EC50 [20] of 280 nM.
